Each structure is given as a SMILES string.

The data set in a line: Retinoid storage stability in stability chamber, hydroxypinacolone retinoate analysed by UPLC/UV-VIS at 360 nm. It counts as physicochemical. The settings on record: 6-month testing period, 25° C. and 40° C., within measurement accuracy. The protocol:
The above samples were tested under two sets of temperature conditions. Each sample was placed in a stability chamber maintained at either room temperature (25° C.±2° C.) or accelerated (elevated) temperature (40° C.±2° C.). Each stability chamber was maintained at a relative humidity of 60%+5%. Stability of the retinoid was monitored at various time points: initially, after one month, after two months, after three months, and after six months. Assessment of the retinoid stability was conducted by removing a sample from the stability chamber and analyzing for hydroxypinacolone retinoate by UPLC/UV-VIS (Waters ACQUITY UPLC H-Class PLUS System with a photodiode array (PDA) detector). A wavelength of 360 nm was used for analyses. The measured concentrations were determined with a measurement accuracy of about +10%. The initial and subsequent concentrations are believed to deviate from the expected 0.1 wt % due to some initial degradation of the stock hydroxypinacolone retinoate.

Consider `CC1=C(/C=C/C(C)=C/C=C/C(C)=C/C(=O)OCC(=O)C(C)(C)C)C(C)(C)CCC1` [hydroxypinacolone retinoate], for which the “Hydroxypinacolone retinoate concentration over the testing period” value is recorded as “remained essentially constant”.
